“And” between values parts separate entries of the source, which are not always exact repeats. Equal entries are not always repeated.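 All cell lines were grown in 96-well plates and treated with compound for 48 hours. GI50 is the concentration that inhibits growth by half. TGI: concentration producing complete growth inhibition.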
Columns and labels:
Assay in all cases: NCI tumour cell line growth inhibition, 48 h
MDA-MB-435 = test system: MDA-MB-435
MCF7 breast = test system: MCF7 breast
NCI/ADR-RES ovarian = test system: NCI/ADR-RES ovarian
T-47D breast = test system: T-47D breast
MDA-MB-231 breast = test system: MDA-MB-231 breast
HCC-2998 colon = test system: HCC-2998 colon
SF-539 CNS = test system: SF-539 CNS
BT-549 breast = test system: BT-549 breast
SR leukemia = test system: SR leukemia
MDA-N = test system: MDA-N

SMILES: C[C@H](Nc1ccc(C#N)n(C)c1=O)c1cc2cc(Cl)ccc2[nH]c1=O
- GI50 (MDA-MB-435): 28.6 µM
- TGI (MDA-MB-435): 88.7 µM
- GI50 (MCF7 breast): 23.2 µM
- TGI (MCF7 breast): > 100 µM
- GI50 (NCI/ADR-RES ovarian): 26.1 µM
- TGI (NCI/ADR-RES ovarian): > 100 µM
- GI50 (T-47D breast): 17.3 µM
- TGI (T-47D breast): 94.4 µM
- GI50 (MDA-MB-231 breast): 23.2 µM
- TGI (MDA-MB-231 breast): 98.4 µM
- GI50 (HCC-2998 colon): 33.5 µM
- TGI (HCC-2998 colon): > 100 µM
- GI50 (SF-539 CNS): 40.2 µM
- TGI (SF-539 CNS): > 100 µM
- GI50 (BT-549 breast): 12.2 µM
- TGI (BT-549 breast): 70.1 µM
- GI50 (SR leukemia): 27.7 µM
- TGI (SR leukemia): > 100 µM

SMILES: NC(CCc1ccccc1)(C(=O)O)c1ccccc1 (configuration not stated)
- TGI (MDA-MB-435): > 100 µM
- TGI (NCI/ADR-RES ovarian): > 100 µM
- TGI (T-47D breast): > 100 µM
- TGI (MDA-MB-231 breast): > 100 µM
- TGI (HCC-2998 colon): > 100 µM
- TGI (BT-549 breast): > 100 µM
- TGI (MDA-N): > 100 µM
- TGI (SR leukemia): > 100 µM

SMILES: Cc1cc(N2CCOCC2)nc(N(CCCNc2ccnc3cc(Cl)ccc23)Cc2ccc3c(c2)OCO3)n1
- GI50 (T-47D breast): 1.41 µM
- TGI (T-47D breast): 3.93 µM
- GI50 (MDA-MB-231 breast): 1.68 µM
- TGI (MDA-MB-231 breast): 3.32 µM
- GI50 (SR leukemia): 0.186 µM
- TGI (SR leukemia): 0.593 µM

SMILES: Cn1c2c(c3c(=O)[nH]ncc31)CCc1ccccc1-2
- TGI (MDA-MB-435): > 100 µM
- TGI (MCF7 breast): 79 µM
- TGI (NCI/ADR-RES ovarian): 89 µM
- TGI (T-47D breast): > 100 µM
- TGI (MDA-MB-231 breast): 47.3 µM
- TGI (SF-539 CNS): > 100 µM
- TGI (BT-549 breast): 78.2 µM
- TGI (MDA-N): 91 µM
- TGI (SR leukemia): 55.2 µM

SMILES: CN(C)C/C=C(/c1ccc(Br)cc1)c1cccnc1
- TGI (MDA-MB-435): > 100 µM
- TGI (MCF7 breast): > 100 µM
- TGI (NCI/ADR-RES ovarian): > 100 µM
- TGI (T-47D breast): > 100 µM
- TGI (MDA-MB-231 breast): > 100 µM
- TGI (HCC-2998 colon): 29.8 µM
- TGI (SF-539 CNS): > 100 µM
- TGI (BT-549 breast): > 100 µM
- TGI (MDA-N): > 100 µM
- TGI (SR leukemia): > 100 µM

SMILES: CC(C)c1ccc2c(c1)[C@@]1(C)CC[C@H](C)C(C)(C)C1CC2 (some centres not stated)
- TGI (MDA-MB-435): 31.3 µM
- TGI (MCF7 breast): 32.1 µM
- TGI (NCI/ADR-RES ovarian): 36.6 µM
- TGI (T-47D breast): 66.4 µM
- TGI (MDA-MB-231 breast): 34 µM
- TGI (HCC-2998 colon): 41.3 µM
- TGI (SF-539 CNS): 39.6 µM
- TGI (BT-549 breast): 35 µM
- TGI (MDA-N): 56.3 µM
- TGI (SR leukemia): 67.5 µM

SMILES: NCCCCN
- TGI (MDA-MB-435): 31.4 µM
- TGI (MCF7 breast): > 100 µM
- TGI (NCI/ADR-RES ovarian): > 100 µM
- TGI (T-47D breast): > 100 µM
- TGI (MDA-MB-231 breast): > 100 µM
- TGI (HCC-2998 colon): > 100 µM
- TGI (SF-539 CNS): > 100 µM
- TGI (BT-549 breast): > 100 µM
- TGI (SR leukemia): > 100 µM

SMILES: CCCCCCOC(=O)C(N)Cc1ccc(OC)cc1 (configuration not stated)
- TGI (MDA-MB-435): > 100 µM
- TGI (MCF7 breast): > 100 µM
- TGI (NCI/ADR-RES ovarian): > 100 µM
- TGI (T-47D breast): > 100 µM
- TGI (MDA-MB-231 breast): > 100 µM
- TGI (SF-539 CNS): > 100 µM
- TGI (BT-549 breast): > 100 µM
- TGI (SR leukemia): > 100 µM

SMILES: COc1cccc(/C=N/[N-]C(N)=O)c1[O-].[Cu+2].[OH3+].c1cnc2c(c1)ccc1cccnc12
- TGI (HCC-2998 colon): 49.1 µM
- TGI (SF-539 CNS): 21.6 µM
- TGI (SR leukemia): > 100 µM

SMILES: CC(Br)C(=O)c1ccc2cc(Br)c3ccccc3c2c1 (configuration not stated)
- TGI (MDA-MB-435): 29.9 µM
- TGI (MCF7 breast): 30.1 µM
- TGI (NCI/ADR-RES ovarian): 35 µM
- TGI (T-47D breast): 30.5 µM
- TGI (MDA-MB-231 breast): 30.2 µM
- TGI (HCC-2998 colon): 29.6 µM
- TGI (BT-549 breast): 28.7 µM
- TGI (MDA-N): 27 µM
- TGI (SR leukemia): 21.2 µM

SMILES: CC(C)(C)c1ccc(O)c(Br)c1
- TGI (MDA-MB-435): > 100 µM
- TGI (MCF7 breast): > 100 µM
- TGI (NCI/ADR-RES ovarian): > 100 µM
- TGI (T-47D breast): > 100 µM
- TGI (MDA-MB-231 breast): > 100 µM
- TGI (HCC-2998 colon): > 100 µM
- TGI (SF-539 CNS): > 100 µM
- TGI (BT-549 breast): > 100 µM
- TGI (MDA-N): > 100 µM
- TGI (SR leukemia): > 100 µM

SMILES: O=P(O)(O)OP(=O)(O)O
- TGI (MDA-MB-435): > 100 µM
- TGI (MCF7 breast): > 100 µM
- TGI (NCI/ADR-RES ovarian): > 100 µM
- TGI (T-47D breast): > 100 µM
- TGI (MDA-MB-231 breast): > 100 µM
- TGI (HCC-2998 colon): > 100 µM
- TGI (SF-539 CNS): > 100 µM
- TGI (BT-549 breast): > 100 µM
- TGI (MDA-N): > 100 µM
- TGI (SR leukemia): > 100 µM

SMILES: O=S1c2ccccc2N=C(c2ccc3ccccc3c2)CC1c1ccccc1 (configuration not stated)
- TGI (HCC-2998 colon): 36.6 µM
- TGI (SF-539 CNS): 37.7 µM
- TGI (SR leukemia): 63.8 µM

SMILES: C/C(=C\CNc1ncnc2nc(Cl)[nH]c12)CO
- TGI (MDA-MB-435): > 100 µM
- TGI (MCF7 breast): > 100 µM
- TGI (NCI/ADR-RES ovarian): > 100 µM
- TGI (T-47D breast): > 100 µM
- TGI (MDA-MB-231 breast): > 100 µM
- TGI (HCC-2998 colon): > 100 µM
- TGI (SF-539 CNS): > 100 µM
- TGI (MDA-N): > 100 µM
- TGI (SR leukemia): > 100 µM

SMILES: COC(=O)c1c(O)ccc2c1c1c(n2Cc2ccccn2)C(=O)c2ccccc2C1
- TGI (MDA-MB-435): > 100 µM
- TGI (MCF7 breast): > 100 µM
- TGI (NCI/ADR-RES ovarian): > 100 µM
- TGI (MDA-MB-231 breast): > 100 µM
- TGI (SF-539 CNS): > 100 µM
- TGI (BT-549 breast): > 100 µM
- TGI (MDA-N): > 100 µM
- TGI (SR leukemia): > 100 µM

SMILES: Fc1cc(C2=C[C@H](c3ccc4c(c3)OCO4)NC(=S)N2)c(Cl)cc1Cl
- TGI (MDA-MB-435): > 100 µM
- TGI (MCF7 breast): > 100 µM
- TGI (NCI/ADR-RES ovarian): > 100 µM
- TGI (T-47D breast): > 100 µM
- TGI (MDA-MB-231 breast): > 100 µM
- TGI (HCC-2998 colon): 75.4 µM
- TGI (SF-539 CNS): > 100 µM
- TGI (BT-549 breast): > 100 µM
- TGI (MDA-N): > 100 µM
- TGI (SR leukemia): > 100 µM

SMILES: CCOC(=O)C(=CNC(Cc1c[nH]c2ccccc12)C(=O)OC)C(=O)OCC (configuration not stated)
- TGI (SF-539 CNS): > 100 µM

SMILES: COC(=N)C(C)C
- TGI (HCC-2998 colon): > 100 µM
- TGI (SF-539 CNS): > 100 µM
- TGI (SR leukemia): > 100 µM

SMILES: CCOC(=O)C(C)OC(=O)c1ccc(C)cc1 (configuration not stated)
- TGI (HCC-2998 colon): > 100 µM
- TGI (SF-539 CNS): > 100 µM
- TGI (SR leukemia): > 100 µM

SMILES: Clc1ccc(NCc2nnc(COc3ccc(OCc4nnc(CNc5ccc(Cl)cc5)o4)c(Cl)c3)o2)cc1
- TGI (MDA-MB-435): > 100 µM
- TGI (MCF7 breast): 88.3 µM
- TGI (NCI/ADR-RES ovarian): 68.5 µM
- TGI (T-47D breast): > 100 µM
- TGI (MDA-MB-231 breast): 63.3 µM
- TGI (HCC-2998 colon): > 100 µM
- TGI (BT-549 breast): > 100 µM
- TGI (MDA-N): > 100 µM
- TGI (SR leukemia): 13.6 µM

SMILES: O=C(CSc1nc2ccc(Cl)cc2c(=O)n1-c1ccccc1)N=Nc1c(O)[nH]c2ccc(F)cc12
- TGI (MDA-MB-435): 5.69 µM
- TGI (MCF7 breast): 4.64 µM
- TGI (NCI/ADR-RES ovarian): 8.44 µM
- TGI (T-47D breast): 4.8 µM
- TGI (MDA-MB-231 breast): 5.82 µM
- TGI (HCC-2998 colon): 8.73 µM
- TGI (SF-539 CNS): 15.2 µM
- TGI (BT-549 breast): 4.11 µM
- TGI (MDA-N): 7.53 µM

SMILES: COC1OC(C(=O)CP(=O)(OC)OC)C(OCc2ccccc2)C(OCc2ccccc2)C1OCc1ccccc1 (configuration not stated)
- TGI (MDA-MB-435): 31.8 µM and 35.9 µM
- TGI (MCF7 breast): 30.5 µM
- TGI (NCI/ADR-RES ovarian): 42.6 µM and 46 µM
- TGI (T-47D breast): 39.6 µM and 43.7 µM
- TGI (MDA-MB-231 breast): 31.7 µM and 29.9 µM
- TGI (HCC-2998 colon): 31.5 µM and 29.7 µM
- TGI (SF-539 CNS): 33 µM and 31.9 µM
- TGI (BT-549 breast): 32 µM and 33.8 µM
- TGI (MDA-N): 29.8 µM and 30.8 µM
- TGI (SR leukemia): 39.1 µM and 65.7 µM

SMILES: COc1cc(S(=O)(=O)N/N=C/C=C/c2ccccc2)c(OC)cc1NC(C)=O
- TGI (MDA-MB-435): > 100 µM
- TGI (MCF7 breast): > 100 µM
- TGI (NCI/ADR-RES ovarian): > 100 µM
- TGI (T-47D breast): > 100 µM
- TGI (SF-539 CNS): 81.7 µM
- TGI (BT-549 breast): > 100 µM
- TGI (MDA-N): > 100 µM
- TGI (SR leukemia): > 100 µM

SMILES: CC(C)(C)OC(=O)N1C(C2=COc3ccccc3O2)=COc2cccnc21
- TGI (MDA-MB-435): 3.67 µM
- TGI (MCF7 breast): 3.08 µM
- TGI (NCI/ADR-RES ovarian): 4.7 µM
- TGI (T-47D breast): 3.45 µM
- TGI (MDA-MB-231 breast): 4.01 µM
- TGI (HCC-2998 colon): 3.16 µM
- TGI (SF-539 CNS): 4.01 µM
- TGI (BT-549 breast): 5.42 µM
- TGI (MDA-N): 4.68 µM
- TGI (SR leukemia): 5.9 µM

SMILES: O=c1oc2c(ccc3occc32)c(N2CCCCC2)c1-c1ccccc1
- TGI (MCF7 breast): > 100 µM
- TGI (NCI/ADR-RES ovarian): > 100 µM
- TGI (HCC-2998 colon): > 100 µM
- TGI (SF-539 CNS): > 100 µM

Source: PubChem BioAssay (NCI)
